One data set deals with C57BL/6 hepatocytes. The format is cell-based. As for the experimental part:
FIGS. 16A-16F. In vivo activated allogeneic CTLs require target hepatocyte ASMase for efficient killing ex vivo. Hepatocytes, isolated as described in Example 1, were coincubated with splenic T cells harvested from lethally-irradiated wild type C57BL/6 recipients 10-14 days following transplantation of LP BM+T cells. FIG. 16A: 2×10^6 GvH-activated CTLs were coincubated with 0.5×10^6 wild type C57BL/6 or B6.MRL.1pr (FasR^−/−) hepatocytes (left panel) in complete medium for 16 hr. […] Apoptosis was quantified following fixation by nuclear bisbenzimide staining. FIG. 16B: asmase^−/− hepatocytes are resistant to apoptosis induced by GvH-activated CTLs. CTL coincubation was performed as in FIG. 16A and apoptosis was quantified 16 hr thereafter. FIG. 16C: Representative images of asmase^+/+ (top left panel) and asmase^−/− (bottom left panel) C57BL/6 hepatocytes following 10 min coincubation in suspension with 2×10^6 GvH-activated T cells. Hepatocytes were fixed and stained with DAPI and Cy-3-labelled anti-ceramide mAb as described in Example 1. Arrows indicate ceramide-rich platform generation on the outer leaflet of the plasma membrane. […] FIG. 16D: Quantification of ceramide-rich platforms in asmase^+/+ and asmase^−/− hepatocytes following incubation with 2×10^6 GvH-activated CTLs. […] Apoptosis was quantified as in FIG. 16A. […] 0.5×10^6 wild type hepatocytes, preincubated with 50 μg/mL nystatin for 30 min and resuspended in RPMI containing 1% lipid-free FBS, were coincubated with 2×10^6 GvH-activated T cells and apoptosis was quantified as in FIG. 16A. […]
To assess whether ceramide-mediated raft clustering into membrane platforms is an essential component of cytolytic T cell (CTL)-induced apoptosis of hepatocytes, we blocked raft clustering pharmacologically and examined the impact on alloactivated CTL-induced hepatocyte apoptosis in vitro. […] Co-incubation induced increased hepatocyte apoptosis from a baseline of 4.7±0.7% to 33.8±1.9% by 16 hr, as detected by nuclear morphologic changes (FIG. 16A). […]

Data set [1] deals with splenic T cells. The data set can be described thus: Activation-induced cell death (AICD) assay, T cell apoptosis. The format is cell-based, mouse. The note with it: 500 nM; 16 hr. An excerpt:
To define a role for target cell ASMase in AICD, asmase^+/+, asmase^−/− or MRL.1pr (FasR^−/−) T cells were stimulated for 24 hr with 10 microgam/ml ConA, washed, rested in medium containing 20 U/ml rIL-2 for 24 hr, and finally AICD was initiated by restimulation in medium containing 20 U/ml rIL-2 and increasing concentrations of plate bound anti-CD3 mAb for 24 hr. AICD induction by anti-CD3 mAb conferred ceramide-rich platform generation 4 hr following stimulation (FIG. 19D), evident in 26.4±1.6% of the population of asmase^+/+ T cells compared to 5.1±1.0% of asmase^−/− T cells (p<0.005). Confocal analysis identified colocalization of the sphingolipid GM1 (FIG. 19E) and Fas within ceramide-rich platforms in asmase^+/+ T cells.
To characterize the impact of platform generation on AICD, asmase^+/+ and asmase^−/− T cells were induced to undergo AICD and apoptosis was quantified 16 hr thereafter. Apoptosis in asmase^+/+ T cells was anti-CD3 mAb dose-dependent, reaching 32.9±5.2% apoptosis 16 hr post induction (FIG. 19F). […]
Harvested splenocytes were enriched for T lymphocytes by nylon wool passage, resulting in >90% purity based upon FITC-CD3 mAb staining by flow cytometry. […] Cells were subsequently fixed, stained with 25 μl of 24 μg/ml bis-benzimide trihydrochloride solution (Hoechst #33258; Sigma-Aldrich, Milwaukee Wisc.) and apoptosis was quantified by fluorescence microscopy, as above.

Data set [2] has as its system splenic T cells. Description: Platform generation in T cells after AICD induction. To be noted: 500 nM; not shown.

On to `CCCCCCCCCCCCC/C=C/[C@@H](O)[C@H](CO)NC(=O)CCCCCCCCCCCCCCC` [C16-ceramide], for which, in the data set on C57BL/6 hepatocytes, the “rescue of CTL-induced apoptosis in nystatin-treated hepatocytes” value was “unable to overcome cholesterol chelation”. Also, the “apoptosis of asmase−/− T cells stimulated to undergo AICD” value with splenic T cells [1] is recorded as “completely restored”. In addition, the “platform generation in asmase−/− T cells stimulated to undergo AICD” value in the data set on splenic T cells [2] was “completely restored”.
